Source: patent US20080009418A1, “Selective Inhibitors” (Alchemia LTD., priority 2004, published 2008)

Key:
Details in all cases: compound at 10 μM
[1] = target: T1, Human neuropeptide Y (NPY-Y1) (Homo sapiens, UniProt P25929); experiment: Radioligand binding, human neuropeptide Y NPY-Y1 membranes, FlashPlate, [125I]-PYY
T1 construct: purchased Perkin Elmer Biosignal
T1 sequence (P25929 1-384): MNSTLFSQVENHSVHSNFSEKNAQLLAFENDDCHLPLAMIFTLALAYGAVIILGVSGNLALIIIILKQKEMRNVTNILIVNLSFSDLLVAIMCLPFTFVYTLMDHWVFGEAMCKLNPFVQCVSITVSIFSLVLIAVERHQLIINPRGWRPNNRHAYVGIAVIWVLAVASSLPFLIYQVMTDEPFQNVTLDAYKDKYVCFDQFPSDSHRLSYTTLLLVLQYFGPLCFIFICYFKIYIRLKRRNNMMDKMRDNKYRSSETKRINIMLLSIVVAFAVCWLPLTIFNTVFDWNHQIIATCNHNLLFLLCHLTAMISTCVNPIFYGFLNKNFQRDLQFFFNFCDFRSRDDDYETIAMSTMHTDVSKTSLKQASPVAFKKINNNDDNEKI
Method in brief: (§1)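 Cloned human receptor membranes were coated onto FlashPlate wells and incubated with radioligand and compound (added from a 0.5 mM DMSO daughter plate) for 1 hour at room temperature in the dark. Scintillation counting gave percent inhibition, with DMSO defining total and reference ligand defining non-specific binding.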

Human Melanocortin (MC4) = target: T2, Human Melanocortin (MC4) (Homo sapiens, UniProt P32245); experiment: Radioligand binding, human melanocortin MC4 membranes, FlashPlate, [125I]-NDP-αMSH
T2 construct: purchased Perkin Elmer Biosignal
T2 sequence (P32245 whole entry): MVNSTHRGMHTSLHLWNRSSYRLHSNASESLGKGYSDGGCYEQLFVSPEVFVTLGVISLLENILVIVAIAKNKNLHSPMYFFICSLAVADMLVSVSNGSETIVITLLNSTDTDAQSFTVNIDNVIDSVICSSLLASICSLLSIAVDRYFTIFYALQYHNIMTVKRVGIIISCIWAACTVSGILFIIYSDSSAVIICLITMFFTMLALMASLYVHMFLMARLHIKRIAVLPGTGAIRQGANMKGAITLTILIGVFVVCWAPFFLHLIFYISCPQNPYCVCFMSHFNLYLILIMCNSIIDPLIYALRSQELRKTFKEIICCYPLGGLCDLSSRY
Method in brief: as §1

Human Melanocortin (MC3) = target: T3, Human Melanocortin (MC3) (Homo sapiens, UniProt P41968); experiment: Radioligand binding, human melanocortin MC3 membranes, FlashPlate, [125I]-NDP-αMSH
T3 construct: purchased Perkin Elmer Biosignal
T3 sequence (P41968 whole entry): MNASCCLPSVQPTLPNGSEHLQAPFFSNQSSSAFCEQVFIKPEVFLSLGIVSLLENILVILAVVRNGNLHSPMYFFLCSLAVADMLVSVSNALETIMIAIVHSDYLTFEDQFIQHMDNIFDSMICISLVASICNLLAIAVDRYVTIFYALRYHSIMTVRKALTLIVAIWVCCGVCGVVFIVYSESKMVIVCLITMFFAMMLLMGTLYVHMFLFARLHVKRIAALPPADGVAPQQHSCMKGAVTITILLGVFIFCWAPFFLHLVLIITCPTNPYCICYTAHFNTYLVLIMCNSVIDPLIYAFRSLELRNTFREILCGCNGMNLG
Method in brief: as §1

Human opioid (ORL1) = target: T4, Human opioid (ORL1) (Homo sapiens, UniProt P41146); experiment: Radioligand binding, human opioid ORL1 membranes, FlashPlate, [125I]-Nociceptin
T4 construct: purchased Perkin Elmer Biosignal
T4 sequence (P41146 whole entry): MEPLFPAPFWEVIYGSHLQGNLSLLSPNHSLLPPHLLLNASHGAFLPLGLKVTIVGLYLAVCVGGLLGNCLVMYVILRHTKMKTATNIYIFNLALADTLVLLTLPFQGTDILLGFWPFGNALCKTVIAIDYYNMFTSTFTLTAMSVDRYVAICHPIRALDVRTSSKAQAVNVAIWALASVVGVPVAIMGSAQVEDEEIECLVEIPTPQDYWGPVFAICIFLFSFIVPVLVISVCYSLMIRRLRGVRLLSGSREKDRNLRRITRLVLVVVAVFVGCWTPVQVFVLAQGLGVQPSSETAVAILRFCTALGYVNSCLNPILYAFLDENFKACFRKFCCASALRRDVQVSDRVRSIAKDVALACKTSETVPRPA
Method in brief: as §1

Human δ-opioid (DOP) = target: T5, Human δ-opioid (DOP) (Homo sapiens, UniProt P41143); experiment: Radioligand binding, human δ-opioid (DOP) membranes, FlashPlate, [3H]-Bremazocine
T5 construct: purchased Perkin Elmer Biosignal
T5 sequence (P41143 whole entry): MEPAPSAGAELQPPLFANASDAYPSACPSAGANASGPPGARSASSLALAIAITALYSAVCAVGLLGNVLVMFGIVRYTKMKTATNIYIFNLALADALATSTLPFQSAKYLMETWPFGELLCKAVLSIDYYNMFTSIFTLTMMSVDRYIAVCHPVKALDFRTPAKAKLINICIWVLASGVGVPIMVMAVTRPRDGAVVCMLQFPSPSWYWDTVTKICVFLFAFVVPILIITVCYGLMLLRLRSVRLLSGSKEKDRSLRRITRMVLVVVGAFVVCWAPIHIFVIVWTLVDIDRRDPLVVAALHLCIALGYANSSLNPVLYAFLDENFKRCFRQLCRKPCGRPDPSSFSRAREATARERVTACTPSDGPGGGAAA
Method in brief: as §1

Human melanocortin (MC5) = target: T6, Human melanocortin (MC5) (Homo sapiens, UniProt P33032); experiment: Radioligand binding, human melanocortin MC5 membranes, FlashPlate, [125I]-NDP-αMSH
T6 construct: purchased Perkin Elmer Biosignal
T6 sequence (P33032 whole entry): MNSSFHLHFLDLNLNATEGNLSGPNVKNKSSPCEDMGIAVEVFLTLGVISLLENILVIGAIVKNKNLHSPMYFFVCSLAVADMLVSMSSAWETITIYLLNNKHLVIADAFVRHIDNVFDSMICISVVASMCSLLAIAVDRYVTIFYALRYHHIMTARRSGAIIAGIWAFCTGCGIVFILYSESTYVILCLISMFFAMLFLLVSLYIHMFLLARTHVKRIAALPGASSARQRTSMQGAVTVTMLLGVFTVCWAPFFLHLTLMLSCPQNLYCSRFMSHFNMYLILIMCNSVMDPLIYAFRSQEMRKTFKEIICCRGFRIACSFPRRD
Method in brief: as §1

Mouse urotensin (mUR2) = target: T7, Mouse urotensin (mUR2) (Mus musculus, UniProt Q8VIH9); experiment: Radioligand binding, mouse urotensin mUR2 membranes, FlashPlate, [125I]-Urotensin II
T7 construct: purchased Perkin Elmer Biosignal
T7 sequence (Q8VIH9 1-385): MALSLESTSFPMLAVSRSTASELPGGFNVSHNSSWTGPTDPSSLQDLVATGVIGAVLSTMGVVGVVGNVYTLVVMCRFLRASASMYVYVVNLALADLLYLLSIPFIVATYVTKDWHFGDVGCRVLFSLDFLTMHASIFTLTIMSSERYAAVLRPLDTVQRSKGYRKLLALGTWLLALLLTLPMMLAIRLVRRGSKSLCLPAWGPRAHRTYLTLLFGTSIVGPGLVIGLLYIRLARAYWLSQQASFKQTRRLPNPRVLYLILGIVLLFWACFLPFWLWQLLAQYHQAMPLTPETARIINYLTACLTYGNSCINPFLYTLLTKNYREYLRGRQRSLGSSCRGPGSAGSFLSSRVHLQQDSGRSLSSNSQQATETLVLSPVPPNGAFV
Method in brief: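 Cloned mouse urotensin (mUR2) receptor membranes from Perkin Elmer Biosignal were immobilized in FlashPlate microplates using a proprietary coating. Each well got 19.5 μl buffer, then 0.5 μl of DMSO, reference ligand, or compound. Adding 5 μl of [125I]-Urotensin II, diluted to 5× final concentration in binding buffer, started binding. Plates were sealed with TopSeal-A and incubated 1 hour at room temperature in the dark. Wells were counted for 30 seconds each on a TopCount after a 60-second delay, and percentage inhibition was calculated.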

[2] = target: T8, Human melanin-concentrating hormone (MCH1) (Homo sapiens, UniProt Q99705); experiment: Radioligand binding, human melanin-concentrating hormone MCH1 membranes, FlashPlate, [125I]-S36057
T8 construct: purchased Perkin Elmer Biosignal
T8 sequence (Q99705 whole entry): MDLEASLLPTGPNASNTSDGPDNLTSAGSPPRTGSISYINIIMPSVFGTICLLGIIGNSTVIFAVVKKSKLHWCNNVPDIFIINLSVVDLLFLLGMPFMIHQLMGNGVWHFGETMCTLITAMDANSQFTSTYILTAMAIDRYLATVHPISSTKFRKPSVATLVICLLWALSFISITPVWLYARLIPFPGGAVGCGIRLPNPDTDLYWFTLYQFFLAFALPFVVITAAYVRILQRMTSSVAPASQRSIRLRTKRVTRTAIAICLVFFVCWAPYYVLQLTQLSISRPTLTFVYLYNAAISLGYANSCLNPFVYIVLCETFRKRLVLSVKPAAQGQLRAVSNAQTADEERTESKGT
Method in brief: as §1

Human neurokinin (NK1) = target: T9, Human neurokinin (NK1) (Homo sapiens, UniProt P25103); experiment: Radioligand binding, human neurokinin NK1 membranes, filtration, [125I]-Substance P
T9 construct: purchased Perkin Elmer Biosignal
T9 sequence (P25103 whole entry): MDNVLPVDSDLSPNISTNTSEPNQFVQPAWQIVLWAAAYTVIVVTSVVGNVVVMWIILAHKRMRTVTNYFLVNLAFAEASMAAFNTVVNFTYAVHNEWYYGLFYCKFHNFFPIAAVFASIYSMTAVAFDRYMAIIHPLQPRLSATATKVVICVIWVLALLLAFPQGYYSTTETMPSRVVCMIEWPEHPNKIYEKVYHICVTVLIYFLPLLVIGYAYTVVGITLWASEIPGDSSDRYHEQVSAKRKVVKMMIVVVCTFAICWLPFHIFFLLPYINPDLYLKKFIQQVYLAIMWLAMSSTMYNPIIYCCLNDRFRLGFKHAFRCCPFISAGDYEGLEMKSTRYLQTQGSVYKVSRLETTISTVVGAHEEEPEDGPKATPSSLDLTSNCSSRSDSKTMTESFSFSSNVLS
Method in brief: (§2)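 Filtration binding on cloned human receptor membranes (1 Unit/well), [125I]-Substance P for NK1 and [3H]-Diprenorphine for KOP, 1 h at room temperature. Filters PEI-presoaked, washed with cold 50 mM Tris-HCl pH 7.4, counted by scintillation; percent inhibition calculated, reference ligand defining non-specific binding.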

Human μ-opioid (MOP) = target: T10, Human μ-opioid (MOP) (Homo sapiens, UniProt P35372); experiment: Radioligand binding, human μ-opioid (MOP) membranes, FlashPlate, [3H]-Naloxone
T10 construct: purchased Perkin Elmer Biosignal
T10 sequence (P35372 whole entry): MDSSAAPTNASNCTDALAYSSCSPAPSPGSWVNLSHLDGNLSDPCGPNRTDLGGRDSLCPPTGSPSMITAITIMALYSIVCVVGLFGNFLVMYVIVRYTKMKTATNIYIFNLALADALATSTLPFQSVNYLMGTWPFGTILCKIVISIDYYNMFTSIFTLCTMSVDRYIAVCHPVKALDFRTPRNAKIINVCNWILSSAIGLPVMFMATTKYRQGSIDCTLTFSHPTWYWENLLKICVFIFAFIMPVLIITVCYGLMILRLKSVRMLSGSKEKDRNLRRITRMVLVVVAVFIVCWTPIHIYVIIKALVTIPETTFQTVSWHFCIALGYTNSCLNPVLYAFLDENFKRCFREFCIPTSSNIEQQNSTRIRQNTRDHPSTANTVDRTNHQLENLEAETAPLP
Method in brief: as §1

Human κ-Opioid (KOP) = target: T11, Human κ-Opioid (KOP) (Homo sapiens, UniProt P41145); experiment: Radioligand binding, human κ-opioid (KOP) membranes, filtration, [3H]-Diprenorphine
T11 construct: purchased Perkin Elmer Biosignal
T11 sequence (P41145 whole entry): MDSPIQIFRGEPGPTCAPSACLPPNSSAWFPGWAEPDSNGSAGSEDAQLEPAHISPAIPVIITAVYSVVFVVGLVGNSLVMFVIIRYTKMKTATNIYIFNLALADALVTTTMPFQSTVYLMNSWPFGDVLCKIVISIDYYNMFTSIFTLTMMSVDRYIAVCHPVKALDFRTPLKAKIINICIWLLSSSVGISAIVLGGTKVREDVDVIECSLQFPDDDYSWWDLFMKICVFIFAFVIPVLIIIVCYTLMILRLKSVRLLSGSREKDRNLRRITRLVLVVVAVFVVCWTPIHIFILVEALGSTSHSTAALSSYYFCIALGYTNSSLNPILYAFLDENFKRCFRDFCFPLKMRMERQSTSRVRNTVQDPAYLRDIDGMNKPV
Method in brief: as §2

N=C(N)NCCC(=O)NC1C(OCc2ccc(Cl)cc2)OC(COCc2ccccc2)C(O)C1OCc1ccc(Cl)cc1 (stereo not shown) [compound 427]
A9: inhibition of radioligand binding ([1]; [125I]-PYY, human NPY-Y1 membranes): − (“−” indicates less than 50% inhibition at 10 μM)
A4: inhibition of radioligand binding (Human Melanocortin (MC4); [125I]-NDP-αMSH, human MC4 membranes): + (“+” indicates greater than 50% inhibition at 10 μM)
A3: inhibition of radioligand binding (Human Melanocortin (MC3); [125I]-NDP-αMSH, human MC3 membranes): + (“+” indicates greater than 50% inhibition at 10 μM)
A10: inhibition of radioligand binding (Human opioid (ORL1); [125I]-Nociceptin, human ORL1 membranes): + (“+” indicates greater than 50% inhibition at 10 μM)
A1: inhibition of radioligand binding (Human δ-opioid (DOP); [3H]-Bremazocine, human DOP membranes): − (“−” indicates less than 50% inhibition at 10 μM)
A5: inhibition of radioligand binding (Human melanocortin (MC5); [125I]-NDP-αMSH, human MC5 membranes): + (“+” indicates greater than 50% inhibition at 10 μM)
A11: inhibition of radioligand binding (Mouse urotensin (mUR2); [125I]-Urotensin II, mouse mUR2 membranes): − (“−” indicates less than 50% inhibition at 10 μM)
A6: inhibition of radioligand binding ([2]; [125I]-S36057, human MCH1 membranes): + (“+” indicates greater than 50% inhibition at 10 μM)
A8: inhibition of radioligand binding (Human neurokinin (NK1); [125I]-Substance P, human NK1 membranes): + (“+” indicates greater than 50% inhibition at 10 μM)
A7: inhibition of radioligand binding (Human μ-opioid (MOP); [3H]-Naloxone, human MOP membranes): − (“−” indicates less than 50% inhibition at 10 μM)
A2: inhibition of radioligand binding (Human κ-Opioid (KOP); [3H]-Diprenorphine, human KOP membranes): − (“−” indicates less than 50% inhibition at 10 μM)

CO[C@H]1[C@H](O)[C@@H](COCc2cccc(O)c2)OC(OCCc2ccccc2)[C@@H]1NC(=O)CCNC(=N)N (stereo partly shown) [compound 159]
A9 radioligand binding, percentage inhibition ([1]; [125I]-PYY): − (“−” indicates less than 50% inhibition at 10 μM)
A4 radioligand binding, percentage inhibition (Human Melanocortin (MC4); [125I]-NDP-αMSH): − (“−” indicates less than 50% inhibition at 10 μM)
A3 radioligand binding, percentage inhibition (Human Melanocortin (MC3); [125I]-NDP-αMSH): − (“−” indicates less than 50% inhibition at 10 μM)
A10 radioligand binding, percentage inhibition (Human opioid (ORL1); [125I]-Nociceptin): − (“−” indicates less than 50% inhibition at 10 μM)
A1 radioligand binding, percentage inhibition (Human δ-opioid (DOP); [3H]-Bremazocine): − (“−” indicates less than 50% inhibition at 10 μM)
A5 radioligand binding, percentage inhibition (Human melanocortin (MC5); [125I]-NDP-αMSH): − (“−” indicates less than 50% inhibition at 10 μM)
A11 radioligand binding, percentage inhibition (Mouse urotensin (mUR2); [125I]-Urotensin II): − (“−” indicates less than 50% inhibition at 10 μM)
A6 radioligand binding, percentage inhibition ([2]; [125I]-S36057): − (“−” indicates less than 50% inhibition at 10 μM)
A8 radioligand binding, percentage inhibition (Human neurokinin (NK1); [125I]-Substance P): + (“+” indicates greater than 50% inhibition at 10 μM)
A7 radioligand binding, percentage inhibition (Human μ-opioid (MOP); [3H]-Naloxone): − (“−” indicates less than 50% inhibition at 10 μM)
A2 radioligand binding, percentage inhibition (Human κ-Opioid (KOP); [3H]-Diprenorphine): − (“−” indicates less than 50% inhibition at 10 μM)

CSC1OC(COCc2ccc3ccccc3c2)C(O)C(OCc2ccc3ccccc3c2)C1NC(=O)CCCN (stereo not shown) [compound 320]
A9: inhibition of radioligand binding, human neuropeptide Y (NPY-Y1) ([1]; [125I]-PYY): − (“−” indicates less than 50% inhibition at 10 μM)
A4: inhibition of radioligand binding, human melanocortin (MC4) (Human Melanocortin (MC4); [125I]-NDP-αMSH): − (“−” indicates less than 50% inhibition at 10 μM)
A3: inhibition of radioligand binding, human melanocortin (MC3) (Human Melanocortin (MC3); [125I]-NDP-αMSH): − (“−” indicates less than 50% inhibition at 10 μM)
A10: inhibition of radioligand binding, human opioid (ORL1) (Human opioid (ORL1); [125I]-Nociceptin): − (“−” indicates less than 50% inhibition at 10 μM)
A1: inhibition of radioligand binding, human δ-opioid (DOP) (Human δ-opioid (DOP); [3H]-Bremazocine): − (“−” indicates less than 50% inhibition at 10 μM)
A5: inhibition of radioligand binding, human melanocortin (MC5) (Human melanocortin (MC5); [125I]-NDP-αMSH): + (“+” indicates greater than 50% inhibition at 10 μM)
A11: inhibition of radioligand binding, mouse urotensin (mUR2) (Mouse urotensin (mUR2); [125I]-Urotensin II): − (“−” indicates less than 50% inhibition at 10 μM)
A6: inhibition of radioligand binding, human melanin-concentrating hormone (MCH1) ([2]; [125I]-S36057): − (“−” indicates less than 50% inhibition at 10 μM)
A8: inhibition of radioligand binding, human neurokinin (NK1) (Human neurokinin (NK1); [125I]-Substance P): + (“+” indicates greater than 50% inhibition at 10 μM)
A7: inhibition of radioligand binding, human μ-opioid (MOP) (Human μ-opioid (MOP); [3H]-Naloxone): − (“−” indicates less than 50% inhibition at 10 μM)
A2: inhibition of radioligand binding, human κ-opioid (KOP) (Human κ-Opioid (KOP); [3H]-Diprenorphine): − (“−” indicates less than 50% inhibition at 10 μM)

COC[C@H]1OC(OCc2ccc(-c3ccccc3)cc2)[C@H](NC(=O)CNC(=N)N)[C@@H](OCc2ccc(Cl)cc2)[C@@H]1O (stereo partly shown) [compound 10]
A9 radioligand binding inhibition ([1]; human NPY-Y1 membranes): − (“−” indicates less than 50% inhibition at 10 μM)
A4 radioligand binding inhibition (Human Melanocortin (MC4); human melanocortin MC4 membranes): − (“−” indicates less than 50% inhibition at 10 μM)
A3 radioligand binding inhibition (Human Melanocortin (MC3); human melanocortin MC3 membranes): − (“−” indicates less than 50% inhibition at 10 μM)
A10 radioligand binding inhibition (Human opioid (ORL1); human ORL1 membranes): − (“−” indicates less than 50% inhibition at 10 μM)
A1 radioligand binding inhibition (Human δ-opioid (DOP); human δ-opioid (DOP) membranes): − (“−” indicates less than 50% inhibition at 10 μM)
A5 radioligand binding inhibition (Human melanocortin (MC5); human melanocortin MC5 membranes): + (“+” indicates greater than 50% inhibition at 10 μM)
A11 radioligand binding inhibition (Mouse urotensin (mUR2); mouse urotensin mUR2 membranes): − (“−” indicates less than 50% inhibition at 10 μM)
A6 radioligand binding inhibition ([2]; human MCH1 membranes): + (“+” indicates greater than 50% inhibition at 10 μM)
A8 radioligand binding inhibition (Human neurokinin (NK1); human neurokinin NK1 membranes): + (“+” indicates greater than 50% inhibition at 10 μM)
A7 radioligand binding inhibition (Human μ-opioid (MOP); human μ-opioid (MOP) membranes): − (“−” indicates less than 50% inhibition at 10 μM)
A2 radioligand binding inhibition (Human κ-Opioid (KOP); human κ-opioid (KOP) membranes): − (“−” indicates less than 50% inhibition at 10 μM)

CO[C@H]1[C@H](O)[C@@H](COCc2cccc(O)c2)OC(OCCc2ccccc2)[C@@H]1NC(=O)CCCN (stereo partly shown) [compound 160]
A9 radioligand binding, percentage inhibition ([1]; [125I]-PYY): − (“−” indicates less than 50% inhibition at 10 μM)
A4 radioligand binding, percentage inhibition (Human Melanocortin (MC4); [125I]-NDP-αMSH): − (“−” indicates less than 50% inhibition at 10 μM)
A3 radioligand binding, percentage inhibition (Human Melanocortin (MC3); [125I]-NDP-αMSH): − (“−” indicates less than 50% inhibition at 10 μM)
A10 radioligand binding, percentage inhibition (Human opioid (ORL1); [125I]-Nociceptin): − (“−” indicates less than 50% inhibition at 10 μM)
A1 radioligand binding, percentage inhibition (Human δ-opioid (DOP); [3H]-Bremazocine): − (“−” indicates less than 50% inhibition at 10 μM)
A5 radioligand binding, percentage inhibition (Human melanocortin (MC5); [125I]-NDP-αMSH): − (“−” indicates less than 50% inhibition at 10 μM)
A11 radioligand binding, percentage inhibition (Mouse urotensin (mUR2); [125I]-Urotensin II): − (“−” indicates less than 50% inhibition at 10 μM)
A6 radioligand binding, percentage inhibition ([2]; [125I]-S36057): − (“−” indicates less than 50% inhibition at 10 μM)
A8 radioligand binding, percentage inhibition (Human neurokinin (NK1); [125I]-Substance P): + (“+” indicates greater than 50% inhibition at 10 μM)
A7 radioligand binding, percentage inhibition (Human μ-opioid (MOP); [3H]-Naloxone): − (“−” indicates less than 50% inhibition at 10 μM)
A2 radioligand binding, percentage inhibition (Human κ-Opioid (KOP); [3H]-Diprenorphine): − (“−” indicates less than 50% inhibition at 10 μM)
